Legend:
[1] = molecular target: Amyloid-beta precursor protein (Homo sapiens) (UniProt P05067); test: Inhibition of amyloid beta (1 to 40) (unknown origin) aggregation at 100 uM by thioflavin-T fluorescence method relative to rifampicin
Acetylcholinesterase = Acetylcholinesterase (Homo sapiens, UniProt P22303); test: Inhibition of human recombinant AChE measured for 1 min by Ellman's method
Cholinesterase [2] = molecular target: T1, Cholinesterase (Equus caballus, UniProt P81908); test: Inhibition of equine BuChE measured for 1 min by Ellman's method
[3] = molecular target: Amyloid-beta precursor protein (Homo sapiens) (UniProt P05067); test: Inhibition of amyloid beta (1 to 40_1 to 42) (unknown origin) aggregation at 100 uM by thioflavin-T fluorescence method relative to rifampicin
[4] = molecular target: Amyloid-beta precursor protein (Homo sapiens) (UniProt P05067); test: Inhibition of amyloid beta (1 to 42) (unknown origin) aggregation at 100 uM by thioflavin-T fluorescence method relative to rifampicin
Cholinesterase [5] = molecular target: T1, Cholinesterase; test: Mixed type inhibition of equine BuChE by Lineweaver-Burk plot analysis
Cholinesterase [6] = molecular target: T1, Cholinesterase; test: Competitive inhibition of equine BuChE by Lineweaver-Burk plot analysis

T1 sequence (P81908 whole entry): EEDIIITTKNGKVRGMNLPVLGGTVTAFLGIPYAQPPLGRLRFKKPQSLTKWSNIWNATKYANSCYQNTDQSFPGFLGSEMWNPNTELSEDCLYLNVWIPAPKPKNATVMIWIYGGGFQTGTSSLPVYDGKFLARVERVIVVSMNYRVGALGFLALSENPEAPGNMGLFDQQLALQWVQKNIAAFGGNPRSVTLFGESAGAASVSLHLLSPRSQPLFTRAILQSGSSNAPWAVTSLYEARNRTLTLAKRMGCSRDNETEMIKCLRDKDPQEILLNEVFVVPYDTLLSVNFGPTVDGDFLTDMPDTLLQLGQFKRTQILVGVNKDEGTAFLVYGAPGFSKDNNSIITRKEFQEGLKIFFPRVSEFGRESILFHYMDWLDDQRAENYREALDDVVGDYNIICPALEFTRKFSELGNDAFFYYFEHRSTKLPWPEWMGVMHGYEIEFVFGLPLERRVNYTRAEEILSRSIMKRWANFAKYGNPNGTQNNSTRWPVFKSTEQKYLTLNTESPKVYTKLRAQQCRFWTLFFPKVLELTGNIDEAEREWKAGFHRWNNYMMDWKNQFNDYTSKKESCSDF
Chain of Amyloid-beta precursor protein (Homo sapiens) (P05067 whole entry): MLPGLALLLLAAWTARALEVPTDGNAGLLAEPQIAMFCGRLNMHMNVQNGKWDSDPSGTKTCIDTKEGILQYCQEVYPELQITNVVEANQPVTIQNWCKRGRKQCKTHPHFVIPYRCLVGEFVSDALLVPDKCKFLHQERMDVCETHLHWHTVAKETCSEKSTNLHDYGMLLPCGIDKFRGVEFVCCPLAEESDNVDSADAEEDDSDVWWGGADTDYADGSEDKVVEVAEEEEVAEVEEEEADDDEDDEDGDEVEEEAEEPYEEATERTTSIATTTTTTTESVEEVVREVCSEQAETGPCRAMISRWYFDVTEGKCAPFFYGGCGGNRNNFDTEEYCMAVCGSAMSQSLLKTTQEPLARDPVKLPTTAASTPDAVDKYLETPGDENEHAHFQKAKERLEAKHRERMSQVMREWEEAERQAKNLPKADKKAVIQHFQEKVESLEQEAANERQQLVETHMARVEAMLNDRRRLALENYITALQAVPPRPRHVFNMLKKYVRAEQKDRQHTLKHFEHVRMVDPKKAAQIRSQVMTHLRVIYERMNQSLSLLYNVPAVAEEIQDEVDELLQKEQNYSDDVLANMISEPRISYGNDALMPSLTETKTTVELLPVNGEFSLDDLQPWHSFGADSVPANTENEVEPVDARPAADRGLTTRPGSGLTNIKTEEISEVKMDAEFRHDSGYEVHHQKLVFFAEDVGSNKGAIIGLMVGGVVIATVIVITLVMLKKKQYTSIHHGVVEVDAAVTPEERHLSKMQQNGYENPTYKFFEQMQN
Chain of Acetylcholinesterase (P22303 whole entry): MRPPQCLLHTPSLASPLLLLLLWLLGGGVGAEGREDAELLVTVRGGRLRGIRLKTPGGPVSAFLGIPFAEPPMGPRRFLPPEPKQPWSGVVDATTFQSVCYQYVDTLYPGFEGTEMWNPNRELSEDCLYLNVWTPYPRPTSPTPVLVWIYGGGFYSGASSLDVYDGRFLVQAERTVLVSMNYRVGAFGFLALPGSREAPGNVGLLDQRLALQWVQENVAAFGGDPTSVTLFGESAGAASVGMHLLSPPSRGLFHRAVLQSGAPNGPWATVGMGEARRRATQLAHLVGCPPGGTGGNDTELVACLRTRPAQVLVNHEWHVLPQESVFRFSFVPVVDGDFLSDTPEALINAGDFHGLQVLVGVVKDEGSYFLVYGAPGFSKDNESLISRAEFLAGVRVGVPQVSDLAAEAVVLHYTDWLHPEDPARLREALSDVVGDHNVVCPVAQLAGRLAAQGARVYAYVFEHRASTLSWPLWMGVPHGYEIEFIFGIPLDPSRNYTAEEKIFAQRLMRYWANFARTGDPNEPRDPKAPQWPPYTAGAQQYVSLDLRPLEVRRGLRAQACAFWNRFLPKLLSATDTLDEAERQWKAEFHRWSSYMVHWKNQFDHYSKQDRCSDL

Structure (SMILES) | inhibition [1] | IC50 (Acetylcholinesterase) | IC50 (Cholinesterase [2]) | inhibition [3] | inhibition [4] | Ki (Cholinesterase [5]) | Ki (Cholinesterase [6])
COc1ccc(/C=N/NC(=O)CN2CCN(Cc3ccccc3)CC2)cc1 | 69% | 88.5 µM | 88.3 µM | 69% | 69% | – | –
COc1ccc(/C=N/NC(=O)CN2CCC(Cc3ccccc3)CC2)cc1 | 69% | – | 48.8 µM | 69% | 69% | 30.5 µM | –
CCOc1ccc(/C=N/NC(=O)CN2CCC(Cc3ccccc3)CC2)cc1 | 69% | – | 67.3 µM | 69% | 69% | – | 31.5 µM
COc1ccc(/C=N/NC(=O)CN2CCC(Cc3ccccc3)CC2)cc1OC | 69% | 62.8 µM | 55.1 µM | 69% | 69% | – | –
COc1ccc(/C=N/NC(=O)CN2CCN(Cc3ccccc3)CC2)cc1OC | 69% | 81.1 µM | 71.7 µM | 69% | 69% | – | –
CCOc1ccc(/C=N/NC(=O)CN2CCN(Cc3ccccc3)CC2)cc1 | 69% | 81.4 µM | 98.8 µM | 69% | 69% | – | –

Source: ChEMBL document CHEMBL2321855, “Synthesis, molecular modeling and evaluation of novel N'-2-(4-benzylpiperidin-/piperazin-1-yl)acylhydrazone derivatives as dual inhibitors for cholinesterases and Aβ aggregation” (Bioorg Med Chem Lett, 2013)
